Holding throughout (format): in vivo
The subject of one test is Uncinula necator. As to the kind of experiment: Activity against Uncinula necator on grape plants (Example B-7). How it is done: The deposit is then allowed to dry. One day later, the treated plants are inoculated by dusting freshly harvested conidia over the test plants; then the plants were incubated in a growt chamber for 10-14 days at +22° C. and 70% r.h. The efficacy of the test compounds is determined by comparing the degree of fungal attack with that on untreated, similarly inoculated check plants. I

The subject of test [1] is Erysiphe graminis f. sp. tritici. Description: Efficacy against Erysiphe graminis f.sp. tritici on wheat (Example B-5), foliar spray, synergy by COLBY. From the text: A synergistic effect exists whenever the action of an active ingredient combination is greater than the sum of the actions of the individual components.
The action to be expected E for a given active ingredient combination obeys the so-called COLBY formula and can be calculated as follows (COLBY, S. R. “Calculating synergistic and antagonistic responses of herbicide combination”. Weeds, Vol. 15, pages 20-22; 1967):
According to Colby, the expected (additive) action of active ingredients I+II using p+q ppm of active ingredient is [formula]
If the action actually observed (O) is greater than the expected action (E), then the action of the combination is superadditive, i.e. there is a synergistic effect.
Five to ten wheat seeds c.v. “Arina” are sown in plastic pots of 7 cm diameter and grown for 7 to 12 days at 20° C., 50-70% rH. When the primary leaves have fully expanded, the plants are spray treated with aqueous spray liquors containing the single compounds, or mixtures thereof (hereinafter a.i.). All compounds are used as experimental or commercially available formulations, combinations are applied as tank mixtures. The application comprises foliar spraying to near runoff (three pots per treatment). 24 hours after the application or 24 hours before application, the plants are inoculated in a settling tower with fresh spores of Erysiphe graminis f. sp. tritici. The plants are then incubated in a growth chamber at 20° C., 60% rH. Seven days after the inoculation, the percentage of infection on primary leaves is evaluated. The efficacy of the a.i. is determined by comparing the degree of fungal attack on treated plants with that on untreated, similarly inoculated and incubated check plants. Each a.i. is tested at 4 to 5 concentrations. The synergie factor is calculated according to the COLBY method.

For another test, the system named is Erysiphe graminis. Description: Field test on Erysiphe graminis, winter wheat cv. Kanzler (Example B-6). To be noted: for % infested leaf area after 29 days: winter wheat field trial, untreated control 15. How it is done:
A field trial was carried out in Germany with winter wheat, cv.Kanzler. The experiment was arranged with 4 replicates in randomized plots of 12.5 m^2. Cyproconazole was used as a EC240, quinoxyfen as a SC500 and the mixture cyproconazole/quinoxyfen as a SC155 formulation. Cyproconazole was applied at 80 g a.i./ha, quinoxyfen at 75 g a.i./ha and the mixture contained the same amounts of the individual active ingredients. The spray volume of all treatments was 400 l/ha. Disease assessment of Erysiphe graminis was estimated 29 days after application when untrated control plants had 15% infected leaf area. Results are expressed as % activity calculated on the basis of % infected leaf area.

A further test deals with Septoria spp. As to the kind of experiment: Activity against Septoria, field trial, winter wheat cv. Consort (Example B-8). The settings on record: for % infested leaf after 84 days: winter wheat field trial, untreated control 97. How it is done: A field trial was carried out in Great Britain with winter wheat, cv. Consort. The experiment was arranged with 4 replicates in randomized plots each of 36 m^2. Application was carried out at 5-10% infected leaf area on the lower leaves. Cyproconazole was used as a EC240, quinoxyfen as a SC500 and the mixture cyproconazole/quinoxyfen as a SC155 formulation. Cyproconazole was applied at 80 g a.i./ha, quinoxyfen at 75 g a.i./ha and the mixture contained the same amounts of the individual active ingredients. The spray volume of all treatments was 200 l/ha. Disease assessment of Septoria spp. was estimated 84 days after application when the untrated control plants had approximated 97% infected leaf area. Results are expressed as % activity calculated on the basis of % infected leaf area.

The mark [2] stands for this setting: Blumeria graminis, foliar, curative application, single a.i. 0.05 mg a.i./l, read-out: % activity observed.
Where [3] appears, read: curative application, single a.i. 0.1 mg a.i./l.
Where [4] appears, read: protective application, single a.i. 0.1 mg a.i./l.
[5] abbreviates: protective application, single a.i. 0.25 mg a.i./l.

Experimental findings from patent US6552039B2, “Fungicidal combinations comprising a 4-phenoxyquinoline” (Syngenta Crop Protection, Inc., priority 1998, dated 2003) are described below.

Structures are written as SMILES. Where two headings read alike, the source gives them in different places.

Regarding `Fc1ccc(Oc2ccnc3cc(Cl)cc(Cl)c23)cc1` [Quinoxyfen], the inhibition at 0.1 µg/mL with Uncinula necator (Erysiphe necator, single a.i. 0.1 mg a.i./l, read-out: % activity observed) amounted to 48%; in test [1] (Blumeria graminis, foliar, curative application, single a.i. 0.1 mg a.i./l, read-out: % activity observed), 3%; in test [1] (Blumeria graminis, foliar, protective application, single a.i. 0.1 mg a.i./l, read-out: % activity observed), 1%. Moreover, the inhibition at 1 µg/mL with Uncinula necator (Erysiphe necator, single a.i. 1 mg a.i./l, read-out: % activity observed) came out at 58%; in test [1] (Blumeria graminis, foliar, curative application, single a.i. 1 mg a.i./l, read-out: % activity observed) it was 7%. For the same molecule, the inhibition at 0.05 µg/mL was determined as 1% in test [1] (setting [2]) and 0% in test [1] (Blumeria graminis, foliar, protective application, single a.i. 0.05 mg a.i./l, read-out: % activity observed). Also, the inhibition at 0.25 µg/mL came out at 6% in test [1] (Blumeria graminis, foliar, curative application, single a.i. 0.25 mg a.i./l, read-out: % activity observed) and 3% in test [1] (Blumeria graminis, foliar, protective application, single a.i. 0.25 mg a.i./l, read-out: % activity observed). The inhibition at 0.5 µg/mL in test [1] (Blumeria graminis, foliar, curative application, single a.i. 0.5 mg a.i./l, read-out: % activity observed) is 4%. Also, the inhibition at 75 g/ha with Erysiphe graminis (Blumeria graminis, 696 h, SC500, 75 g a.i./ha, 29 days after application, read-out: % activity observed) is 33%; in the test on Septoria spp. (2016 h, SC500, 75 g a.i./ha, 84 days after application, read-out: % activity observed), 12%. The “% infested leaf area after 29 days” value with Erysiphe graminis (SC500, 75 g a.i./ha) came to 10%. The “% infested leaf after 84 days” value in the test with Septoria spp. (SC500, 75 g a.i./ha) came out at 85%.

As for `CCCC(Cn1cncn1)c1ccc(Cl)cc1Cl` (stereo not shown) [Penconazole], the “% activity observed” value with Uncinula necator (single a.i. 0.1 mg a.i./l) is listed as 7%; with Uncinula necator (single a.i. 1 mg a.i./l), 42%.

In the case of `CC(C1CC1)C(O)(Cn1cncn1)c1ccc(Cl)cc1` (stereo not shown) [Cyproconazole], the “% activity observed” value in test [1] (curative application, single a.i. 0.05 mg a.i./l) is 7%; in test [1] (setting [3]) it was 8%; in test [1] (curative application, single a.i. 0.25 mg a.i./l), 16%; in test [1] (curative application, single a.i. 0.5 mg a.i./l), 24%; in test [1] (protective application, single a.i. 0.05 mg a.i./l) it was 1%; in test [1] (setting [4]), 2%. Besides, the “% activity observed” value in test [1] (setting [5]) was determined as 4%; in test [1] (protective application, single a.i. 0.5 mg a.i./l), 12%; in the test with Erysiphe graminis (SL100, 80 g a.i./ha, 29 days after application) it was 60%; in the test with Septoria spp. (EC240, 80 g a.i./ha, 84 days after application), 42%. In addition, the “% infested leaf area after 29 days” value with Erysiphe graminis (SL100, 80 g a.i./ha) worked out at 6%. Further, the “% infested leaf after 84 days” value in the test with Septoria spp. (EC240, 80 g a.i./ha) worked out at 56%.

Regarding `CC(Cc1ccc(C(C)(C)C)cc1)CN1CCCCC1` (stereo not shown) [Fenpropidin], the inhibition at 0.05 µg/mL in test [1] (setting [2]) amounted to 0%. In test [1] (Blumeria graminis, foliar, protective application, single a.i. 0.5 mg a.i./l, read-out: % activity observed), the inhibition at 0.5 µg/mL came to 2%.

Consider `CCCC1COC(Cn2cncn2)(c2ccc(Cl)cc2Cl)O1` (stereo not shown) [Propiconazole], for which the “% activity observed” value in test [1] (setting [3]) came to 34%; in test [1] (setting [4]), 1%; in test [1] (setting [5]), 12%.

For `Cc1cc(C2CC2)nc(Nc2ccccc2)n1` [Cyprodinil], the “% activity observed” value in test [1] (curative application, single a.i. 25 mg a.i./l) is 25%.
